Measurements published in ChEMBL document CHEMBL2046386, “Potent and selective aminopyrimidine-based B-Raf inhibitors with favorable physicochemical and pharmacokinetic properties” (J Med Chem, 2012).
Values after ≈ are worked out from the molar mass of the structure shown.

Tests used:
[1] = Dissociation constant, pKa of the compound at acidic pH; assay type: physicochemical
[2] = target: T1, Serine/threonine-protein kinase B-raf (Homo sapiens, UniProt P15056, V600E); test: Inhibition of His6X-tagged human B-raf V600E mutant expressed in baculovirus infected insect cells coexpressing […] using [gamma33P]ATP after 60 mins by scintillation counting
[3] = target: T1, Serine/threonine-protein kinase B-raf; test: Inhibition of B-raf V600E mutant-mediated Erk phosphorylation in human MALM-3M cells by fluorometric analysis; assay type: cell-based
[4] = Thermodynamic solubility of the compound at 0.5 mg/ml after 24 hrs by shake flask method at pH 1.2; assay type: physicochemical; settings: buffer, read-out: Therm_solubility

T1 sequence (P15056 2-766 V600E limits assumed): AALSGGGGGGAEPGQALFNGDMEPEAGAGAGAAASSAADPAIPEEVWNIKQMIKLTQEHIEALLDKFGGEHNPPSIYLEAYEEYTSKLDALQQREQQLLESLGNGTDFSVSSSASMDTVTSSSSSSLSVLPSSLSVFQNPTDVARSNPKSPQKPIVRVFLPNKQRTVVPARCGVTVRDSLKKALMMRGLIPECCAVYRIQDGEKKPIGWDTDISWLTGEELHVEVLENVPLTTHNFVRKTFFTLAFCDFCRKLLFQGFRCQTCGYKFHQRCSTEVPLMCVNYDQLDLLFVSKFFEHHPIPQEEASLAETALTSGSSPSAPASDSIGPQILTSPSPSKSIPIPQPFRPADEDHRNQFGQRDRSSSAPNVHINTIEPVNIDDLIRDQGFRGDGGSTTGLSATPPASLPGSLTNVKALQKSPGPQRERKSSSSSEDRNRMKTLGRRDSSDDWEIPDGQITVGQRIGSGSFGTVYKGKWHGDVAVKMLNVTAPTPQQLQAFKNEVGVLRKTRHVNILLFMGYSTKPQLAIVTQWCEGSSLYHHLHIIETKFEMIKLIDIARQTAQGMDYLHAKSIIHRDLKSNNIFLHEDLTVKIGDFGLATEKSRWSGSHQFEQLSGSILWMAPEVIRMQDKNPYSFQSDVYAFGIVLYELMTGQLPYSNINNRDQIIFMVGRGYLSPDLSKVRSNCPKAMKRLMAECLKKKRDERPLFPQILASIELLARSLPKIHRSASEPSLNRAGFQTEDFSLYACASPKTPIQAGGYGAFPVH

Structure (SMILES) | pKa [1] | IC50 [2] | EC50 [3] | solubility thermodynamic at 24 h [4] | IC50 [3]
CCCS(=O)(=O)Nc1ccc(F)c(NC(=O)Nc2ncnc3[nH]nc(OC)c23)c1F | 1.8 | 1.6 nM | 2.6 nM | 0.049 mg/mL (≈ 111 µM) | 
CCCS(=O)(=O)Nc1ccc(F)c(NC(=O)N(C)c2cc(N)ncn2)c1F |  |  |  |  | 240 nM
CCCS(=O)(=O)Nc1ccc(F)c(NC(=O)Nc2cc(NCCO)ncn2)c1F |  |  |  | 0.9 mg/mL (≈ 2090 µM) | 3400 nM
CCCS(=O)(=O)Nc1ccc(Cl)c(NC(=O)c2csc3c(N)ncnc23)c1F |  | 0.9 nM |  |  | 19 nM
CCCS(=O)(=O)Nc1ccc(F)c(NC(=O)Nc2ncnc3[nH]ncc23)c1F |  | 5.6 nM |  | 0.007 mg/mL (≈ 17 µM) | 88 nM
CCCS(=O)(=O)Nc1ccc(F)c(NC(=O)c2csc3c(N)ncnc23)c1Cl |  | 1.1 nM |  |  | 15 nM
Nc1ncnc2c(C(=O)Nc3c(Cl)ccc(NS(=O)(=O)CCCF)c3F)cccc12 |  | 0.11 nM |  |  | 2.5 nM
